# PubChem BioAssay AID1963826 (Molecular Pharmacology Branch, DTP, NCI, 2024)
# System: 926638-142-R-J1-PDC complex spheroid viability
# Experiment: Anticancer human tumor 926638-142-R-J1-PDC patient-derived endometrial carcinoma cell line growth inhibition [POLQ]
# Conditions: for IC50: curve of first compound; for viability, T/C: stronger effect = lower value
# Description: Multicellular complex tumor spheroid response to Polymerase (POL) inhibitors (novobiocin, ART-558, RP6685) in combination with a variety of drugs and investigational agents in selected tumor cell lines
# The POL inhibitors (novobiocin, ART-558, and RP6685) were evaluated both individually and in combination with standard of care and investigational anticancer small molecules within a complex spheroid model of solid tumors. . Complex spheroids include a stromal component modeled by human endothelial cells (HUVEC) and fibroblasts modeled by human mesenchymal stem cells (MSCs). The concentration ranges selected for each drug and investigational agent were based upon clinically achievable concentrations if the clinical Cmax of the agent was known.
# Compounds. The drugs and investigational agents: novobiocin (NSC847541), ART-558 (NSC835418), RP-6685 (NSC848927), peposertib (NSC802822), ceralasertib (NSC780249), elimusertib (NSC800525), camonsertib (NSC841442), AZD-1390 (NSC803789), olaparib (NSC753686), talazoparib (NSC767125), rucaparib (NSC756644), sotorasib (NSC818433), MRTX-1133 (NSC836407), SN-38 (NSC673596), topotecan (NSC609699), epotoside (NSC141540), doxorubicin (NSC123127), gemcitabine (NSC613327), 5-fluorouracil (NSC19893), paclitaxel (NSC125973), vemurafenib (NSC761431), MSA-2 (NSC828583), SN-011 (NSC837082), adavosertib (NSC754352), prexasertib (NSC758257), carboplatin (NSC241240) and oxaliplatin (NSC266046), were obtained from the National Cancer Institute (NCI) Developmental Therapeutics Program Chemical Repository (21). The FDA-approved anticancer drug set is available from the Developmental Therapeutics Program at https://dtp.cancer.gov/organization/dscb/obtaining/. […] The stock solutions were prepared in dimethyl sulfoxide (DMSO, Sigma-Aldrich, St. Louis, MO, cat. D2650), except for the platinum compounds which were prepared in saline (Quality Biological, Gaithersburg, MD, cat. 114-055-101), at 800-fold the tested concentration and stored at -70 degrees C prior to their use. All drugs and investigational agents were tested over a range starting from a high concentration at or near the clinical Cmax and decreasing in half-log increments. If the clinical Cmax for an agent had not been determined, the highest concentration tested was 10 microM, except for SN-38, which was tested at a high concentration of 1 microM.
# Cell Culture. All cells were maintained in an incubator at 37 degrees C and 5% CO2 with 95% humidity. The PDC lines were cultured according to standard operating procedures established by the NCI PDMR (https://pdmr.cancer.gov). Table 3 of the manuscript, lists the cell lines along with the number of the three cell types plated to form the mct-spheroids and media for tumor cell growth. After thawing, all PDC lines, except 997537-175-T-J1-PDC and 415267-285-R-J2-PDC, were cultured in Matrigel-coated flasks prepared with a working solution of 1X Ham's F-12 nutrient mix, without supplementation (Thermo Fisher Scientific, cat. 11765054), 100 U/mL penicillin-streptomycin (Thermo Fisher Scientific, cat. 15140122), and 2.5% Matrigel (Corning Inc., Corning, NY, cat. 354248) for the first three passages. The two PDC lines 997537-175-T-J1-PDC and 415267-285-R-J2-PDC were cultured on uncoated flasks. The 857933-349-R-J2-PDC line was cultured in 6C/Colon 1B media containing advanced DMEM/F-12 (Thermo Fisher Scientific, cat. 12634028), 10 mM HEPES (Thermo Fisher Scientific, cat. 15630080), 1X GlutaMAX supplement (Thermo Fisher Scientific, cat. 35050061), 0.1 mg/mL primocin (InvivoGen, San Diego, CA, cat. ant-pm-2), 10% defined fetal bovine serum, heat inactivated (HyClone Laboratories Inc., Logan, UT, cat. SH30070.03HI), 50% L-WRN conditioned media (ATCC, cat. CRL-3276), 1.25 mM N-Acetyl-L-cysteine (Sigma-Aldrich, cat. A9165), 10 mM nicotinamide (Sigma-Aldrich, cat. N0636), 1X B-27 supplement (Thermo Fisher Scientific, cat. 17504044), 1X N-2 supplement (Thermo Fisher Scientific, cat. […]
# [1] = second compound 0.0316 µM, first compound 0.0316 µM
# [2] = second compound 0.0316 µM, first compound 0.1 µM
# [3] = second compound 0.0316 µM, first compound 0.316 µM
# [4] = second compound 0.0316 µM, first compound 1 µM
# [5] = second compound 0.0316 µM, first compound 3.16 µM
# [6] = second compound 0.0316 µM, first compound 10 µM
# [7] = second compound 0.1 µM, first compound 0.0316 µM
# [8] = second compound 0.1 µM, first compound 0.1 µM
# [9] = second compound 0.1 µM, first compound 0.316 µM
# [10] = second compound 0.1 µM, first compound 1 µM
# [11] = second compound 0.1 µM, first compound 3.16 µM
# [12] = second compound 0.1 µM, first compound 10 µM
# [13] = second compound 0.316 µM, first compound 0.0316 µM
# [14] = second compound 0.316 µM, first compound 0.1 µM
# [15] = second compound 0.316 µM, first compound 0.316 µM
# [16] = second compound 0.316 µM, first compound 1 µM
# [17] = second compound 0.316 µM, first compound 3.16 µM
# [18] = second compound 0.316 µM, first compound 10 µM
# [19] = second compound 1 µM, first compound 0.0316 µM
# [20] = second compound 1 µM, first compound 0.1 µM
# [21] = second compound 1 µM, first compound 0.316 µM
# [22] = second compound 1 µM, first compound 1 µM
# [23] = second compound 1 µM, first compound 3.16 µM
# [24] = second compound 1 µM, first compound 10 µM
# [25] = second compound 3.16 µM, first compound 0.0316 µM
# [26] = second compound 3.16 µM, first compound 0.1 µM
# [27] = second compound 3.16 µM, first compound 0.316 µM
# [28] = second compound 3.16 µM, first compound 1 µM
# [29] = second compound 3.16 µM, first compound 3.16 µM
# [30] = second compound 3.16 µM, first compound 10 µM
# [31] = second compound 10 µM, first compound 0.0316 µM
# [32] = second compound 10 µM, first compound 0.1 µM
# [33] = second compound 10 µM, first compound 0.316 µM
# [34] = second compound 10 µM, first compound 1 µM
# [35] = second compound 10 µM, first compound 3.16 µM
# [36] = second compound 10 µM, first compound 10 µM
# 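Note: spheroids exposed to drugs for one week before readout.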
# 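Throughout, for viability, T/C: percent viability relative to DMSO vehicle control wells set as 100%.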
compound,measurement,setting,value
C#Cc1c(F)ccc2cc(O)cc(-c3ncc4c(N5CC6CCC(C5)N6)nc(OCC56CCCN5CC(F)C6)nc4c3F)c12 (stereo unspecified) + Cc1cccc(N(C)C(=O)C2C(O)CCN2c2nc(C)cc(C(F)(F)F)c2C#N)c1,IC50,second compound 0.0316 µM,> 10 µM
same,IC50,second compound 0.1 µM,> 10 µM
same,IC50,second compound 0.316 µM,> 10 µM
same,IC50,second compound 1 µM,> 10 µM
same,IC50,second compound 3.16 µM,> 10 µM
same,IC50,second compound 10 µM,> 10 µM
same,"viability, T/C",[1],90.9%
same,"viability, T/C",[2],76.7%
same,"viability, T/C",[3],69.9%
same,"viability, T/C",[4],63.8%
same,"viability, T/C",[5],58.3%
same,"viability, T/C",[6],56.9%
same,"viability, T/C",[7],87.2%
same,"viability, T/C",[8],96.2%
same,"viability, T/C",[9],84.6%
same,"viability, T/C",[10],71.9%
same,"viability, T/C",[11],60.5%
same,"viability, T/C",[12],63.9%
same,"viability, T/C",[13],86.2%
same,"viability, T/C",[14],75.1%
same,"viability, T/C",[15],78.2%
same,"viability, T/C",[16],71.8%
same,"viability, T/C",[17],54%
same,"viability, T/C",[18],61.7%
same,"viability, T/C",[19],95.2%
same,"viability, T/C",[20],76%
same,"viability, T/C",[21],66.9%
same,"viability, T/C",[22],76.2%
same,"viability, T/C",[23],70.9%
same,"viability, T/C",[24],52.5%
same,"viability, T/C",[25],81.1%
same,"viability, T/C",[26],84.3%
same,"viability, T/C",[27],89.2%
same,"viability, T/C",[28],58.5%
same,"viability, T/C",[29],60.1%
same,"viability, T/C",[30],53.5%
same,"viability, T/C",[31],84.8%
same,"viability, T/C",[32],79%
same,"viability, T/C",[33],67.2%
same,"viability, T/C",[34],71.8%
same,"viability, T/C",[35],58.4%
same,"viability, T/C",[36],66.5%
CC1COCCN1c1cc(C2(S(C)(=N)=O)CC2)nc(-c2ccnc3[nH]ccc23)n1 (stereo unspecified) + Cc1cccc(N(C)C(=O)C2C(O)CCN2c2nc(C)cc(C(F)(F)F)c2C#N)c1,IC50,second compound 0.0316 µM,4.55 µM
same,IC50,second compound 0.1 µM,5.51 µM
same,IC50,second compound 0.316 µM,4.7 µM
same,IC50,second compound 1 µM,4.96 µM
same,IC50,second compound 3.16 µM,4.39 µM
same,IC50,second compound 10 µM,4.05 µM
same,"viability, T/C",[1],117%
same,"viability, T/C",[2],93.9%
same,"viability, T/C",[3],93.8%
same,"viability, T/C",[4],101%
same,"viability, T/C",[5],59.2%
same,"viability, T/C",[6],30.1%
same,"viability, T/C",[7],104%
same,"viability, T/C",[8],91.2%
same,"viability, T/C",[9],100%
same,"viability, T/C",[10],81.2%
same,"viability, T/C",[11],76.2%
same,"viability, T/C",[12],25.8%
same,"viability, T/C",[13],107%
same,"viability, T/C",[14],90.9%
same,"viability, T/C",[15],98.6%
same,"viability, T/C",[16],79.5%
same,"viability, T/C",[17],60.7%
same,"viability, T/C",[18],29.7%
same,"viability, T/C",[19],117%
same,"viability, T/C",[20],101%
same,"viability, T/C",[21],96.4%
same,"viability, T/C",[22],110%
same,"viability, T/C",[23],60.5%
same,"viability, T/C",[24],33.6%
same,"viability, T/C",[25],91.6%
same,"viability, T/C",[26],117%
same,"viability, T/C",[27],95.2%
same,"viability, T/C",[28],103%
same,"viability, T/C",[29],59%
same,"viability, T/C",[30],27.4%
same,"viability, T/C",[31],80.4%
same,"viability, T/C",[32],112%
same,"viability, T/C",[33],87.8%
same,"viability, T/C",[34],89%
same,"viability, T/C",[35],56.7%
same,"viability, T/C",[36],25.5%
COc1cccc2c1C(=O)c1c(O)c3c(c(O)c1C2=O)CC(O)(C(=O)CO)CC3OC1CC(N)C(O)C(C)O1 (stereo unspecified) + Nc1ccc(C#CCN(C(=O)Cc2ncc(C(F)(F)F)cc2C(F)(F)F)c2ccc(F)cc2)nn1,IC50,second compound 0.0316 µM,0.167 µM
same,IC50,second compound 0.1 µM,0.14 µM
same,IC50,second compound 0.316 µM,0.137 µM
same,IC50,second compound 1 µM,0.15 µM
same,IC50,second compound 3.16 µM,0.118 µM
same,IC50,second compound 10 µM,0.127 µM
same,"viability, T/C",[1],86.7%
same,"viability, T/C",[2],69.4%
same,"viability, T/C",[3],25.7%
same,"viability, T/C",[4],8.06%
same,"viability, T/C",[5],0.22%
same,"viability, T/C",[6],0.4%
same,"viability, T/C",[7],90.7%
same,"viability, T/C",[8],59.6%
same,"viability, T/C",[9],26.1%
same,"viability, T/C",[10],6.81%
same,"viability, T/C",[11],0.22%
same,"viability, T/C",[12],0.36%
same,"viability, T/C",[13],78.7%
same,"viability, T/C",[14],58.9%
same,"viability, T/C",[15],26.5%
same,"viability, T/C",[16],7.2%
same,"viability, T/C",[17],0.19%
same,"viability, T/C",[18],0.51%
same,"viability, T/C",[19],89%
same,"viability, T/C",[20],62.4%
same,"viability, T/C",[21],27.4%
same,"viability, T/C",[22],7.01%
same,"viability, T/C",[23],0.23%
same,"viability, T/C",[24],0.29%
same,"viability, T/C",[25],80.6%
same,"viability, T/C",[26],54.4%
same,"viability, T/C",[27],23.2%
same,"viability, T/C",[28],7.1%
same,"viability, T/C",[29],0.27%
same,"viability, T/C",[30],0.31%
same,"viability, T/C",[31],74%
same,"viability, T/C",[32],57.6%
same,"viability, T/C",[33],20.7%
same,"viability, T/C",[34],3.99%
same,"viability, T/C",[35],0.31%
same,"viability, T/C",[36],0.43%
